Results on 28 compounds are retold here after patent US20240043420A1, “7-AZAINDOLE COMPOUNDS FOR INHIBITION OF BCR-ABL TYROSINE KINASES” (EnLiven Therapeutics, Inc., priority 2020, published 2024).

Each structure is given as a SMILES string.

One assay addresses ABL1 (T315I) (Homo sapiens, UniProt P00519, T315I). Description: Luminescence-based ABL kinase assay (ADP-Glo, 300 μM ATP), T315I mutant. The assay is classed as biochemical. The method, then: (§1) Kinase activity of ABL1 was measured using the ADP-Glo system (Promega), which measures formation of ADP using a luminescence-based method. Compounds were serially diluted in DMSO. 20 nL of compound or DMSO only (high control, HC) were added to a 384-well plate (OptiPlate-384, PerkinElmer) using an Echo550 liquid handler (Labcyte). 15 μL of kinase solution (10 mM MgCl2, 0.01% Brij-35, 2 mM DTT, 0.05% BSA, 1 mM EGTA, 50 mM HEPES pH 7.5, and 3.325 nM ABL1 [Carna Biosciences]) were added to each well of the 384-well plate containing the compounds. No enzyme control wells were included (low control, LC). The plate was incubated at room temperature for 30 minutes. 5 μL of a second solution containing 10 mM MgCl2, 0.01% Brij-35, 2 mM DTT, 0.05% BSA, 1 mM EGTA, 50 mM HEPES pH 7.5, 6 μM Peptide 2 (Perkin Elmer, Cat No 760346), and 1.2 mM ATP were added to each well to start the kinase reaction. The plate was incubated for 90 minutes at room temperature. 20 μL of ADP-Glo reagent (Promega) were then added to each well and the plate was incubated for 40 minutes at room temperature. 40 μL of kinase detection reagent (Promega) was added to each well and the plate was incubated for an additional 45 minutes at room temperature. During this step, ADP was converted to ATP, a substrate for luciferase, to produce luminescence signal. Luminescence was measured on an Envision plate reader (Perkin Elmer). Luminescence signal positively correlates with kinase activity. The percent kinase activity was calculated as follows: percent kinase activity=100×(Lumsample−LumLC)/(LumHC−LumLC). As noted above, DMSO only and no enzyme wells were used as high and low controls, respectively. IC50 values were calculated using the XLFit software.
A general note: In ADP-Glo the light output rises with the ADP produced.

A further assay deals with T1, ABL1 (Homo sapiens, UniProt P00519).
T1 construct: purchased Carna Biosciences
Put plainly: Luminescence-based ABL kinase assay (ADP-Glo, 300 μM ATP). It is filed as biochemical. The method, then: as §1

`O=C(Nc1ccc2c(-c3ccc4cc[nH]c4c3)c[nH]c2n1)C1CC1` [Compound 20, N-(3-(1H-indol-6-yl)-1H-pyrrolo[2,3-b]pyridin-6-yl)cyclopropanecarboxamide]: the concentration for half-maximal inhibition (IC50) (usually the midpoint of a concentration-inhibition curve) was 27.7 nM against ABL1 (T315I) and 110 nM against ABL1.
For the compound `Cc1cc(N)ncc1-c1c[nH]c2nc(NC(=O)C3CC3)ccc12` [Compound 34, N-[3-(6-amino-4-methylpyridin-3-yl)-1H-pyrrolo[2,3-b]pyridin-6-yl]cyclopropanecarboxamide], the IC50 was found to be 731 nM at ABL1 (T315I) and 159 nM on ABL1.
Take `CNc1cc(C)c(-c2c[nH]c3nc(NC(=O)C4CC4)ccc23)cn1` [Compound 35, N-[3-[4-methyl-6-(methylamino)pyridin-3-yl]-1H-pyrrolo[2,3-b]pyridin-6-yl]cyclopropanecarboxamide]: the IC50 against ABL1 (T315I) was determined as 774 nM; on ABL1, 599 nM.
As for `COc1c(-c2c[nH]c3nc(NC(=O)[C@@H]4C[C@@H]4F)ccc23)ccc2nccn12` [Compound 73, (1S,2S)-2-fluoro-N-(3-(5-methoxyimidazo[1,2-a]pyridin-6-yl)-1H-pyrrolo[2,3-b]pyridin-6-yl)cyclopropane-1-carboxamide], the half-inhibitory concentration (IC50) was greater than 10000 nM against ABL1 (T315I) and 2460 nM at ABL1.
For `COc1c(-c2c[nH]c3nc(NC(=O)[C@@H]4C[C@@H]4F)ccc23)ccn2ccnc12` [Compound 114, (1S,2S)-2-fluoro-N-(3-[8-methoxyimidazo[1,2-a]pyridin-7-yl]-1H-pyrrolo[2,3-b]pyridin-6-yl)cyclopropane-1-carboxamide], in that order: 150 nM and 51.4 nM.
As to `COc1ccccc1-c1c[nH]c2nc(NC(=O)NC3CC3)ccc12` [Compound 123, 3-cyclopropyl-1-[3-(2-methoxyphenyl)-1H-pyrrolo[2,3-b]pyridin-6-yl]urea], the IC50 at ABL1 (T315I) worked out at 17.6 nM; at ABL1 it was 56.5 nM.
For `COc1nc2[nH]ccc2cc1-c1c[nH]c2nc(NC(=O)[C@@H]3C[C@@H]3F)ccc12` [Compound 93, (1S,2S)-2-fluoro-N-(6′-methoxy-1H,1′H-[3,5′-bipyrrolo[2,3-b]pyridin]-6-yl)cyclopropane-1-carboxamide], the figures for the IC50 against ABL1 (T315I) and against ABL1 were 2.94 nM and 5.3 nM, respectively.
Consider `COc1cc2cn[nH]c2cc1-c1c[nH]c2nc(NC(=O)[C@H]3C[C@H]3F)ccc12` [Compound 59, (1R,2R)-2-fluoro-N-[3-(5-methoxy-1H-indazol-6-yl)-1H-pyrrolo[2,3-b]pyridin-6-yl]cyclopropane-1-carboxamide], for which the values for the IC50 against ABL1 (T315I) and against ABL1 were 11 nM and 8.62 nM, respectively.
For `COc1cccc(OC)c1-c1c[nH]c2nc(NC(=O)C3CC3CN3CCNCC3)ccc12` (single isomer, unassigned) [Example S150, Enantiomer 2, N-[3-(2,6-dimethoxyphenyl)-1H-pyrrolo[2,3-b]pyridin-6-yl]-2-(piperazin-1-ylmethyl)cyclopropane-1-carboxamide], the IC50 at ABL1 (T315I) was determined as 27.2 nM; at ABL1, 30 nM.
In the case of `COc1ncccc1-c1c(C)[nH]c2nc(NC(=O)[C@@H]3C[C@@H]3F)ccc12` [Compound 89, (1S,2S)-2-fluoro-N-(3-(2-methoxypyridin-3-yl)-2-methyl-1H-pyrrolo[2,3-b]pyridin-6-yl)cyclopropane-1-carboxamide], the concentration for half-maximal inhibition (IC50) against ABL1 (T315I) was 219 nM; against ABL1, 337 nM.
Take `O=C(Nc1ccc2c(-c3ccc4[nH]ccc4c3)c[nH]c2n1)C1CC1` [Compound 18, N-[3-(1H-indol-5-yl)-1H-pyrrolo[2,3-b]pyridin-6-yl]cyclopropanecarboxamide]: the IC50 on ABL1 (T315I) stood at 14.5 nM; against ABL1 it was 33 nM.
As to `Nc1cccc(-c2c[nH]c3nc(NC(=O)C4CC4)ccc23)n1` [Compound 38, N-(3-(6-aminopyridin-2-yl)-1H-pyrrolo[2,3-b]pyridin-6-yl)cyclopropanecarboxamide], the figures for the half-inhibitory concentration (IC50) against ABL1 (T315I) and against ABL1 were 332 nM and 689 nM, respectively.
For `COc1ncc(F)cc1-c1c[nH]c2nc(NC(=O)NCCN(C)C)ccc12` [Compound 80, 3-[2-(dimethylamino)ethyl]-1-[3-(5-fluoro-2-methoxypyridin-3-yl)-1H-pyrrolo[2,3-b]pyridin-6-yl]urea], in that order: 659 nM and 1050 nM.
For `COc1nc2[nH]ccc2cc1-c1c[nH]c2nc(NC(=O)[C@H]3C[C@@H]3F)ccc12` [Compound 141, (1R,2S)-2-fluoro-N-(6′-methoxy-1H,1′H-[3,5′-bipyrrolo[2,3-b]pyridin]-6-yl)cyclopropane-1-carboxamide], the half-inhibitory concentration (IC50) came out at 31.2 nM on ABL1 (T315I) and 45.5 nM on ABL1.
Consider `COc1c(-c2c[nH]c3nc(NC(=O)[C@@H]4C[C@@H]4F)ccc23)ccc2ncnn12` [Compound 134, (1S,2S)-2-fluoro-N-(3-[5-methoxy-[1,2,4]triazolo[1,5-a]pyridin-6-yl]-1H-pyrrolo[2,3-b]pyridin-6-yl)cyclopropane-1-carboxamide], for which the values for the IC50 at ABL1 (T315I) and against ABL1 were 227 nM and 64.8 nM, respectively.
Taken in the same sequence, the figures for `Cn1cc(-c2c[nH]c3nc(NC(=O)C4CC4)ccc23)ccc1=O` [Compound 57, N-[3-(1-methyl-6-oxopyridin-3-yl)-1H-pyrrolo[2,3-b]pyridin-6-yl]cyclopropanecarboxamide] were 3870 nM and 1090 nM.
Regarding `COc1cccc(OC)c1-c1c[nH]c2nc(NC(=O)NCC3CNC3)ccc12` [Compound 129, 1-(azetidin-3-ylmethyl)-3-(3-(2,6-dimethoxyphenyl)-1H-pyrrolo[2,3-b]pyridin-6-yl)urea], the IC50 at ABL1 (T315I) worked out at 35.8 nM; against ABL1, 32.9 nM.
Turning to `COc1c(-c2c[nH]c3nc(NC(=O)C4CC4)ccc23)ccc2[nH]ncc12` [Compound 16, N-[3-(4-methoxy-1H-indazol-5-yl)-1H-pyrrolo[2,3-b]pyridin-6-yl]cyclopropanecarboxamide], the IC50 at ABL1 (T315I) and against ABL1 was greater than 10000 nM throughout.
In the case of `COc1cc2scnc2cc1-c1c[nH]c2nc(NC(=O)NCCN3CCNCC3)ccc12` [Compound 140, 3-[3-(6-methoxy-1,3-benzothiazol-5-yl)-1H-pyrrolo[2,3-b]pyridin-6-yl]-1-[2-(piperazin-1-yl)ethyl]urea], the IC50 at ABL1 (T315I) is 82.5 nM; at ABL1, 30.6 nM.
Taken in the same sequence, the figures for `Nc1ccc(-c2c[nH]c3nc(NC(=O)C4CC4)ccc23)cn1` [Compound 40, N-[3-(6-aminopyridin-3-yl)-1H-pyrrolo[2,3-b]pyridin-6-yl]cyclopropanecarboxamide] were 170 nM and 121 nM.
Regarding `O=C(Nc1ccc2c(-c3c(F)cccc3F)c[nH]c2n1)C1CC1` [Compound 46, N-(3-(2,6-difluorophenyl)-1H-pyrrolo[2,3-b]pyridin-6-yl)cyclopropanecarboxamide], the IC50 at ABL1 (T315I) is 20.6 nM; at ABL1, 86.4 nM.
For `COc1ccccc1-c1c[nH]c2nc(NC(=O)[C@H]3C[C@@H]3CC#N)ccc12` (relative stereo) [Compound 107, trans-2-(cyanomethyl)-N-(3-(2-methoxyphenyl)-1H-pyrrolo[2,3-b]pyridin-6-yl)cyclopropane-1-carboxamide], in that order: 19.5 nM and 151 nM.
On to `COc1ccccc1-c1c[nH]c2nc(NC(=O)NCC3CC3)ccc12` [Compound 122, 3-(cyclopropylmethyl)-1-[3-(2-methoxyphenyl)-1H-pyrrolo[2,3-b]pyridin-6-yl]urea], for which the IC50 came to 19.9 nM on ABL1 (T315I) and 73.4 nM on ABL1.
Regarding `CNc1cccc(-c2c[nH]c3nc(NC(=O)C4CC4)ccc23)n1` [Compound 39, N-(3-(6-(methylamino)pyridin-2-yl)-1H-pyrrolo[2,3-b]pyridin-6-yl)cyclopropanecarboxamide], the IC50 against ABL1 (T315I) was 245 nM; against ABL1 it was 195 nM.
On to `COc1c(F)cccc1-c1n[nH]c2nc(NC(=O)[C@@H]3C[C@@H]3F)ccc12` [Compound 100, (1S,2S)-2-fluoro-N-(3-(3-fluoro-2-methoxyphenyl)-1H-pyrazolo[3,4-b]pyridin-6-yl)cyclopropane-1-carboxamide], for which the 50% inhibitory concentration (IC50) against ABL1 (T315I) is 105 nM; against ABL1 it was 98.2 nM.
For `O=C(Nc1ccc2c(-c3ccc4c(c3)NCC4)c[nH]c2n1)C1CC1` [Compound 25, N-[3-(2,3-dihydro-1H-indol-6-yl)-1H-pyrrolo[2,3-b]pyridin-6-yl]cyclopropanecarboxamide], the values for the half-maximal inhibitory concentration (IC50) at ABL1 (T315I) and against ABL1 were 74.3 nM and 776 nM, respectively.
With `CN(C)c1ncccc1-c1c[nH]c2nc(NC(=O)C3CC3)ccc12` [Compound 65, N-(3-(2-(dimethylamino)pyridin-3-yl)-1H-pyrrolo[2,3-b]pyridin-6-yl)cyclopropanecarboxamide], the half-inhibitory concentration (IC50) amounted to 8700 nM at ABL1 (T315I) and 158 nM against ABL1.
Consider `O=C(Nc1ccc2c(-c3ccn4ccnc4c3)c[nH]c2n1)C1CC1` [Compound 55, N-(3-[imidazo[1,2-a]pyridin-7-yl]-1H-pyrrolo[2,3-b]pyridin-6-yl)cyclopropanecarboxamide], for which the half-inhibitory concentration (IC50) turned out to be 1030 nM on ABL1 (T315I) and 114 nM against ABL1.
